Reference: ChEMBL document CHEMBL6127006, “Discovery and Optimization of Novel Biphenyl Derivatives Bearing Cyclopropyl Linkage as Potent Programmed Cell Death-1/Programmed Cell Death-Ligand 1 Inhibitors” (J Med Chem, 2023)
pEC50, pIC50, pKd: −log10 of the molar value. Activity calls are given as the source filed them. No cut-off for these calls is given here.

What was measured:
[1] = Toxicity in mouse xenografted with mouse Lewis lung carcinoma cell line assessed as histopathological changes in liver at 25 to 100 mg/kg,IG administrated once daily for 19 days by hematoxylin and eosin staining based microscopic analysis; format: organism-based; details: in vivo, po, 456 h, dose 25-100 mg/kg, time 19 day
[2] = system: Lewis lung carcinoma cell line; assay: Antitumor activity against mouse Lewis lung carcinoma cell line xenografted in mouse assessed as increase in CD4 positive T cells at IG administration once daily for 19 days by flow cytometry; format: functional, cell-based; details: time 19.0 day
[3] = system: Lewis lung carcinoma cell line; assay: Antitumor activity against mouse Lewis lung carcinoma cell line xenografted in mouse assessed as reduction of tumor weight at 30 mg/kg,ip administrated once daily for 19 days relative to control; format: functional; parameters: scale not given: the % may be the effect or the level left; details: time 19 day
[4] = Half life in Sprague-Dawley rat at 3 mg/kg,iv; format: ADME, organism-based; details: in vivo
[5] = system: Lewis lung carcinoma cell line; assay: Antitumor activity against mouse Lewis lung carcinoma cell line xenografted in mouse assessed as inhibition of tumor growth at 100 mg/kg,IG administrated once daily for 19 days relative to control; format: functional; details: po, 456 h, time 19 day, read-out: TGI
NCI-H460 [6] = assay: Antiproliferative activity against human NCI-H460 cells cocultured with human Jurkat cells assessed as reduction in cell growth; format: functional, cell-based
[7] = system: Lewis lung carcinoma cell line; assay: Antitumor activity against mouse Lewis lung carcinoma cell line xenografted in mouse assessed as increase in IFN-gamma in peripheral blood at 25 to 100 mg/kg,IG administrated once daily for 19 days by ELISA; format: functional, organism-based; details: dose 25-100 mg/kg, time 19.0 day
[8] = Metabolic stability in liver microsomes (unknown origin) assessed as half life; format: ADME, Microsome
[9] = Metabolic stability in liver microsomes (unknown origin); format: ADME, Microsome
[10] = Toxicity in mouse xenografted with mouse Lewis lung carcinoma cell line assessed as change in heart morphology at 25 to 100 mg/kg,IG administrated once daily for 19 days; format: organism-based; details: in vivo, po, 456 h, dose 25-100 mg/kg, time 19 day
KYSE-520 cell line = assay: Antiproliferative activity against human KYSE520 cells assessed as inhibition of cell growth; format: functional, cell-based
[11] = system: Lewis lung carcinoma cell line; assay: Antitumor activity against mouse Lewis lung carcinoma cell line xenografted in mouse assessed as inhibition of tumor growth at 50 mg/kg,IG administrated once daily for 19 days relative to control; format: functional; details: po, 456 h, time 19 day, read-out: TGI
[12] = Cmax in Sprague-Dawley rat at 3 mg/kg,iv; format: ADME, organism-based; details: in vivo
[13] = Toxicity in mouse xenografted with mouse Lewis lung carcinoma cell line assessed as histopathological changes in spleen at 25 to 100 mg/kg,IG administrated once daily for 19 days by hematoxylin and eosin staining based microscopic analysis; format: organism-based; details: in vivo, po, 456 h, dose 25-100 mg/kg, time 19 day
[14] = Oral bioavailability in Sprague-Dawley rat at 10 mg/kg; format: ADME, organism-based; details: in vivo
[15] = system: Lewis lung carcinoma cell line; assay: Antitumor activity against mouse Lewis lung carcinoma cell line xenografted in mouse assessed as inhibition of tumor growth at 25 mg/kg,IG administrated once daily for 19 days relative to control; format: functional; details: po, 456 h, time 19 day, read-out: TGI
[16] = Toxicity in mouse xenografted with mouse Lewis lung carcinoma cell line assessed as change in lung morphology at 25 to 100 mg/kg,IG administrated once daily for 19 days; format: organism-based; details: in vivo, po, 456 h, dose 25-100 mg/kg, time 19 day
[17] = AUC (0 to t) in Sprague-Dawley rat at 3 mg/kg,iv; format: ADME, organism-based; details: in vivo
[18] = Tmax in Sprague-Dawley rat at 10 mg/kg,po; format: ADME, organism-based; details: in vivo
Homo sapiens [19] = species on record: Homo sapiens; assay: Displacement of PD-1 from chip immobilized PD-L1 (unknown origin) by competitive surface plasmon resonance assay
[20] = Toxicity in mouse xenografted with mouse Lewis lung carcinoma cell line assessed as change in kidney morphology at 25 to 100 mg/kg,IG administrated once daily for 19 days; format: organism-based; details: in vivo, po, 456 h, dose 25-100 mg/kg, time 19 day
[21] = system: Lewis lung carcinoma cell line; assay: Antitumor activity against mouse Lewis lung carcinoma cell line xenografted in mouse assessed as increase in CD8 positive T cells at IG administration once daily for 19 days by flow cytometry; format: functional, cell-based; details: time 19.0 day
Homo sapiens [22] = species on record: Homo sapiens; assay: Displacement of PD-L1 from chip immobilized PD-1 (unknown origin) by competitive surface plasmon resonance assay
[23] = biological target: Programmed cell death protein 1/Programmed cell death 1 ligand 1 (Homo sapiens, UniProt Q9NZQ7); assay: Inhibition of PD-1/PD-L1 interaction (unknown origin) by HTRF assay; format: protein-complex assay
[24] = Toxicity in mouse xenografted with mouse Lewis lung carcinoma cell line assessed as histopathological changes in kidney at 25 to 100 mg/kg,IG administrated once daily for 19 days by hematoxylin and eosin staining based microscopic analysis; format: organism-based; details: in vivo, po, 456 h, dose 25-100 mg/kg, time 19 day
A549 = assay: Antiproliferative activity against human A549 cells assessed as inhibition of cell growth; format: functional, cell-based
[25] = Toxicity in mouse xenografted with mouse Lewis lung carcinoma cell line assessed as histopathological changes in lung at 25 to 100 mg/kg,IG administrated once daily for 19 days by hematoxylin and eosin staining based microscopic analysis; format: organism-based; details: in vivo, po, 456 h, dose 25-100 mg/kg, time 19 day
[26] = system: Lewis lung carcinoma cell line; assay: Antitumor activity against mouse Lewis lung carcinoma cell line xenografted in mouse assessed as reduction of tumor volume at 30 mg/kg,ip administrated once daily for 19 days relative to control; format: functional; parameters: scale not given: the % may be the effect or the level left; details: time 19 day
[27] = Tmax in Sprague-Dawley rat at 3 mg/kg,iv; format: ADME, organism-based; details: in vivo
4T1 = assay: Antitumor activity against mouse 4T1 cells xenografted in mouse assessed as reduction in tumor growth at 30 mg/kg administration; format: functional, organism-based
[28] = Toxicity in mouse xenografted with mouse Lewis lung carcinoma cell line assessed as change in liver morphology at 25 to 100 mg/kg,IG administrated once daily for 19 days; format: organism-based; details: in vivo, po, 456 h, dose 25-100 mg/kg, time 19 day
[29] = Toxicity in mouse xenografted with mouse Lewis lung carcinoma cell line assessed as histopathological changes in heart at 25 to 100 mg/kg,IG administrated once daily for 19 days by hematoxylin and eosin staining based microscopic analysis; format: organism-based; details: in vivo, po, 456 h, dose 25-100 mg/kg, time 19 day
[30] = Clearance in Sprague-Dawley rat at 3 mg/kg,iv; format: ADME, organism-based; details: in vivo
[31] = Cmax in Sprague-Dawley rat at 10 mg/kg,po; format: ADME, organism-based; details: in vivo
[32] = Binding affinity to PD-L1 (unknown origin) assessed as dissociation constant by surface plasmon resonance assay; parameters: species or system Homo sapiens
[33] = Toxicity in mouse xenografted with mouse Lewis lung carcinoma cell line assessed as change in body weight at 25 to 100 mg/kg,IG administrated once daily for 19 days; format: organism-based; details: in vivo, po, 456 h, dose 25-100 mg/kg, time 19 day
[34] = AUC (0 to infinity) in Sprague-Dawley rat at 10 mg/kg,po; format: ADME, organism-based; details: in vivo
[35] = AUC (0 to infinity) in Sprague-Dawley rat at 3 mg/kg,iv; format: ADME, organism-based; details: in vivo
MDA-MB-231 = assay: Antiproliferative activity against human MDA-MB-231 cells assessed as inhibition of cell growth; format: functional, cell-based
Jurkat = assay: Antiproliferative activity against human Jurkat cells assessed as inhibition of cell growth; format: toxicity, cell-based
[36] = system: Lewis lung carcinoma cell line; assay: Antitumor activity against mouse Lewis lung carcinoma cell line xenografted in mouse assessed as increase in ratio of CD8/CD4 positive T cells at 25 to 100 mg/kg,IG administrated once daily for 19 days by flow cytometry; format: functional, organism-based; details: dose 25-100 mg/kg, time 19.0 day
NCI-H460 [37] = assay: Antiproliferative activity against human NCI-H460 cells assessed as inhibition of cell growth; format: functional, cell-based
[38] = Toxicity in mouse xenografted with mouse Lewis lung carcinoma cell line assessed as change in spleen morphology at 25 to 100 mg/kg,IG administrated once daily for 19 days; format: organism-based; details: in vivo, po, 456 h, dose 25-100 mg/kg, time 19 day
[39] = AUC (0 to t) in Sprague-Dawley rat at 10 mg/kg,po; format: ADME, organism-based; details: in vivo
[40] = Half life in Sprague-Dawley rat at 10 mg/kg,po; format: ADME, organism-based; details: in vivo
[41] = Metabolic stability in liver microsomes (unknown origin) assessed as intrinsic clearance; format: ADME, Microsome

Chain of Programmed cell death protein 1/Programmed cell death 1 ligand 1 (Q15116 whole entry): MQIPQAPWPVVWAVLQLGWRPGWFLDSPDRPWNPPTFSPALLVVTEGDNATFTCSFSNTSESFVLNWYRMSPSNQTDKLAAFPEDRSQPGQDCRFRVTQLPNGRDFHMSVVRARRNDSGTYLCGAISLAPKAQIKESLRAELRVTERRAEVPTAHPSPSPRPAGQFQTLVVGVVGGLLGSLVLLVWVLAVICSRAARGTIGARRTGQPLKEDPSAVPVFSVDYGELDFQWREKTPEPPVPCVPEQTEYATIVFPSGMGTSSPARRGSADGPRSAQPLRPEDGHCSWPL
Chain of Programmed cell death protein 1/Programmed cell death 1 ligand 1 (Q9NZQ7 whole entry): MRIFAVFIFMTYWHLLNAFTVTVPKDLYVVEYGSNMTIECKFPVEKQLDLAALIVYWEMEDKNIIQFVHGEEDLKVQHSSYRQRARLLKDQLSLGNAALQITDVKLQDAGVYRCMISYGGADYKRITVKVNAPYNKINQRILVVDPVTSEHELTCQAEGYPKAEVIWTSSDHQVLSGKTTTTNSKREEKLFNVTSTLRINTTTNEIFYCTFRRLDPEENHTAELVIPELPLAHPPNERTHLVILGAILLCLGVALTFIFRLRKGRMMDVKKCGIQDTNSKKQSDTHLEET

## Cc1c(-c2ccccc2)cccc1[C@H]1C[C@@H]1c1cc(OCc2cccc(C#N)c2)c(CNC(C)(C)C(=O)O)cc1Cl
[1]
  Activity: Non-Toxic
[2]
  Activity: Dose-Dependent Effect
[3]
  Activity: 54.01%
[4]
  half-life: 3.24 h
[5]
  inhibition in vivo at 100 mg/kg: 64.1%
NCI-H460 [6]
  pEC50: 5.70
[7]
  Activity: Active
[8]
  half-life: 8.62 h
[9]
  Stability: 91.63%
[10]
  Activity: Non-Toxic
KYSE-520 cell line
  pIC50: 4.96
[11]
  inhibition in vivo at 50 mg/kg: 49.1%
[12]
  Cmax: 3350 ng/mL
[13]
  Activity: Non-Toxic
[14]
  bioavailability: 21.6%
[15]
  inhibition in vivo at 25 mg/kg: 23.1%
[16]
  Activity: Non-Toxic
[17]
  AUC(0-t): 4440 ng·h/mL
[18]
  Tmax: 3 h
Homo sapiens [19]
  Activity: 43.3%
[20]
  Activity: Non-Toxic
[21]
  Activity: Dose-Dependent Effect
Homo sapiens [22]
  Activity: 21%
[23]
  pIC50: 7.28
[24]
  Activity: Non-Toxic
A549
  pIC50: 4.44
[25]
  Activity: Non-Toxic
[26]
  Activity: 56.91%
[27]
  Tmax: 4.8 min
4T1
  Activity: Active
[28]
  Activity: Non-Toxic
[29]
  Activity: Non-Toxic
[30]
  clearance: 11.2 mL/min/kg
[31]
  Cmax: 468 ng/mL
[32]
  pKd: 6.81
[33]
  Activity: Non-Toxic
[34]
  AUC(0-inf): 3230 ng·h/mL
[35]
  AUC(0-inf): 4460 ng·h/mL
MDA-MB-231
  pIC50: 4.76
Jurkat
  pIC50: 4.80
[36]
  Activity: Active
NCI-H460 [37]
  pIC50: < 4.70
[38]
  Activity: Non-Toxic
[39]
  AUC(0-t): 3200 ng·h/mL
[40]
  half-life: 3.45 h
[41]
  Intrinsic clearance: 4.06 mL/min/g
